The values below come from ChEMBL document CHEMBL3853314, “G-Protein-Coupled Receptor Kinase 2 (GRK2) Inhibitors: Current Trends and Future Perspectives” (J Med Chem, 2016).

Assay [1] is described as follows: Inhibition of human PKA catalytic subunit.
Assay [2] is described as follows: Inhibition of PKA (unknown origin) using LRRASLG as substrate incubated for 30 mins by ADP-Glo assay. More on the design: species or system Homo sapiens. (In general: ADP-Glo first removes unused ATP, then detects ADP through luciferase.)
Assay [3] deals with Beta-adrenergic receptor kinase 1 (Bos taurus, UniProt P21146, S670A). The experiment in a line: Inhibition of bovine GRK2 expressed in Sf9 insect cells assessed as decrease in phosphorylation of urea-washed bovine rod outer segments in presence of Gbetagamma subunits and [gamma-32P]-ATP after 5 to 60 mins by SDS-PAGE analysis.
Assay [4] addresses T1, G protein-coupled receptor kinase 3 (Bos taurus, UniProt P26818).
T1 sequence (P26818 whole entry): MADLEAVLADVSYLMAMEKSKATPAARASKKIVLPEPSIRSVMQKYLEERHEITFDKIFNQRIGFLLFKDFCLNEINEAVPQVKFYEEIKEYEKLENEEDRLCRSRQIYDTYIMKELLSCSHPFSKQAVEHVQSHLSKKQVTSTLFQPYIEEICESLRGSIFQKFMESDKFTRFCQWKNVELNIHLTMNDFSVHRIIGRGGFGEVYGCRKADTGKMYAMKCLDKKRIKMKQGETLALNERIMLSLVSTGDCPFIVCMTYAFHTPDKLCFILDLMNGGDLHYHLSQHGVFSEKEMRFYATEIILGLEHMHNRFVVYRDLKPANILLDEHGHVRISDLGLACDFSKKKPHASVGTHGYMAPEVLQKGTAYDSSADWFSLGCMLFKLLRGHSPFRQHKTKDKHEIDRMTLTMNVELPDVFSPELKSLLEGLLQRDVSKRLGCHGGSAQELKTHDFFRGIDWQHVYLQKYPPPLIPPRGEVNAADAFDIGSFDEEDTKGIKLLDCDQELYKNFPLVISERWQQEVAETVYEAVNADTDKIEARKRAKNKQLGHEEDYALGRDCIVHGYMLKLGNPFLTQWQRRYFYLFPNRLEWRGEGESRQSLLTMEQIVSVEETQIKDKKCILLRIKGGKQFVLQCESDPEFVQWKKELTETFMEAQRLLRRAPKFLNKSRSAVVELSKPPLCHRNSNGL
The experiment in a line: Inhibition of recombinant bovine GRK3 expressed in Sf9 insect cells assessed as decrease in phosphorylation of urea-washed bovine rod outer segments in presence of Gbetagamma subunits and [gamma-32P]-ATP after 5 to 60 mins by SDS-PAGE analysis.

The target in assay [5] is G protein-coupled receptor kinase 5 (Homo sapiens, UniProt P34947). The experiment in a line: Inhibition of recombinant human GRK5 expressed in Sf9 insect cells assessed as decrease in phosphorylation of urea-washed bovine rod outer segments in presence of Gbetagamma subunits and [gamma-32P]-ATP after 5 to 60 mins by SDS-PAGE analysis.
In a further assay the target is T2, Rhodopsin kinase GRK1 (Bos taurus, UniProt P28327).
T2 sequence (P28327 whole entry): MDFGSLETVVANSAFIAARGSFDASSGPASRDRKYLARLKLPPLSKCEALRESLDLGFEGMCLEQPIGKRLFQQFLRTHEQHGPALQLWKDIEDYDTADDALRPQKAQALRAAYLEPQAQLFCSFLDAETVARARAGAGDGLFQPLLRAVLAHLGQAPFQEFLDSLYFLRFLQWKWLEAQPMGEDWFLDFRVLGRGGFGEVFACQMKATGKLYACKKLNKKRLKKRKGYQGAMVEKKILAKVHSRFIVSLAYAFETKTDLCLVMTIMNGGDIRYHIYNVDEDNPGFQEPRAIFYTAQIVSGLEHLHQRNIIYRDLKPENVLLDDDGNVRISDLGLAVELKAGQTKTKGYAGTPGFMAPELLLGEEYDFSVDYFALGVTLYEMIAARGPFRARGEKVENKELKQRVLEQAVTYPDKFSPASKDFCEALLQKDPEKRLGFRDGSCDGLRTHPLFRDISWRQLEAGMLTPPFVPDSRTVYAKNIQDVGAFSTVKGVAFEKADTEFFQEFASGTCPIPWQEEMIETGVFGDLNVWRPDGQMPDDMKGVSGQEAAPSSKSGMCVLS
The experiment in a line: Inhibition of bovine GRK1 (1 to 535 residues) assessed as decrease in phosphorylation of tubulin after 5 mins by SDS-PAGE analysis.

Assay [6] concerns the target Beta-adrenergic receptor kinase 1 (Homo sapiens, UniProt P25098, S670A). The experiment in a line: Inhibition of human GRK2 S670A mutant assessed as decrease in phosphorylation of light-activated bovine rod outer segments after 5 mins by SDS-PAGE analysis.
Assay [7] deals with G protein-coupled receptor kinase 5 (Bos taurus, UniProt P43249). The experiment in a line: Inhibition of bovine GRK5 assessed as decrease in phosphorylation of tubulin after 5 mins by SDS-PAGE analysis.
Assay [8] deals with T3, Beta-adrenergic receptor kinase 1 (Bos taurus, UniProt P21146).
T3 sequence (P21146 whole entry): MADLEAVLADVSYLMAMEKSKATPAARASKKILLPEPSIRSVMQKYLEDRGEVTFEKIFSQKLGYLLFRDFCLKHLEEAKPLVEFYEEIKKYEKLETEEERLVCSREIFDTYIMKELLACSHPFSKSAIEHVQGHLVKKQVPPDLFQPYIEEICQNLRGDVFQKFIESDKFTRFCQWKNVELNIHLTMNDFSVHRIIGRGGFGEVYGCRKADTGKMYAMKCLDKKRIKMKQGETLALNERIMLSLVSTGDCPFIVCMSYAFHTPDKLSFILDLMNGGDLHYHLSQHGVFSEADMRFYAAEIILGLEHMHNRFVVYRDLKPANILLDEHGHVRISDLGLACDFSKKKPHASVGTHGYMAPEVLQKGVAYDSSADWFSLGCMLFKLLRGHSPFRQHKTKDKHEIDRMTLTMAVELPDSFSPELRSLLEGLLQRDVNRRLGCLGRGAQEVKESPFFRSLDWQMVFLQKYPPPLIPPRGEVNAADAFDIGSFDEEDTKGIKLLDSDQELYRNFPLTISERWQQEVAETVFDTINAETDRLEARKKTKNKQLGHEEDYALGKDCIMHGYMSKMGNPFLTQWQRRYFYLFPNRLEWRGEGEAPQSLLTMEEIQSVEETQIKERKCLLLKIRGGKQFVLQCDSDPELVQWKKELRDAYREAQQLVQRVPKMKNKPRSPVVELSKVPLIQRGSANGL
Kind of assay: Inhibition of bovine cerebral cortex GRK2 assessed as decrease in rhodopsin phosphorylation by SDS-PAGE analysis.

The target of assay [9] is Protein kinase C alpha type (Homo sapiens, UniProt P17252). Kind of assay: Inhibition of recombinant full-length human N-terminal GST tagged PKCalpha expressed in Baculovirus infected Sf9 insect cells using KRREILSRRPSYR as substrate incubated for 30 mins by ADP-Glo assay.

Molecules are shown by their SMILES. Structures can show the parent of a compound that is named as a salt. Peptide text beside a SMILES is read from it.

G protein-coupled receptor kinase 5 (Homo sapiens, UniProt P34947), sequence (P34947 whole entry): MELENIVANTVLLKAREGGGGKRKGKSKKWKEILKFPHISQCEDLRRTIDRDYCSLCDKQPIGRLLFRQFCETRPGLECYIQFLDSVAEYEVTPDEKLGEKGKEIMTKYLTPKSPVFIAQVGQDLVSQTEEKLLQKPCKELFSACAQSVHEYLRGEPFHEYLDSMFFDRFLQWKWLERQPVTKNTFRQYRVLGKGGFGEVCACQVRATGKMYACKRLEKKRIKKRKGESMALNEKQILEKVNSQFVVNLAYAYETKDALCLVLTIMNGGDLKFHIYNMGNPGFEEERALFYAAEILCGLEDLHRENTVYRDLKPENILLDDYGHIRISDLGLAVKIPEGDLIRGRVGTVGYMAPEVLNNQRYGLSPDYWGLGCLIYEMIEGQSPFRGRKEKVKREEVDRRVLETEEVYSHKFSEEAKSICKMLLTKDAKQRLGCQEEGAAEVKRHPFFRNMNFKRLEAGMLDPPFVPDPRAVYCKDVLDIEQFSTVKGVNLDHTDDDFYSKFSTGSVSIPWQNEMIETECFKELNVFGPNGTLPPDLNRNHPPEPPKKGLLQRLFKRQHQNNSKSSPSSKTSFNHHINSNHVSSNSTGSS
Beta-adrenergic receptor kinase 1 (Bos taurus, UniProt P21146, S670A), sequence (P21146 whole entry S670A): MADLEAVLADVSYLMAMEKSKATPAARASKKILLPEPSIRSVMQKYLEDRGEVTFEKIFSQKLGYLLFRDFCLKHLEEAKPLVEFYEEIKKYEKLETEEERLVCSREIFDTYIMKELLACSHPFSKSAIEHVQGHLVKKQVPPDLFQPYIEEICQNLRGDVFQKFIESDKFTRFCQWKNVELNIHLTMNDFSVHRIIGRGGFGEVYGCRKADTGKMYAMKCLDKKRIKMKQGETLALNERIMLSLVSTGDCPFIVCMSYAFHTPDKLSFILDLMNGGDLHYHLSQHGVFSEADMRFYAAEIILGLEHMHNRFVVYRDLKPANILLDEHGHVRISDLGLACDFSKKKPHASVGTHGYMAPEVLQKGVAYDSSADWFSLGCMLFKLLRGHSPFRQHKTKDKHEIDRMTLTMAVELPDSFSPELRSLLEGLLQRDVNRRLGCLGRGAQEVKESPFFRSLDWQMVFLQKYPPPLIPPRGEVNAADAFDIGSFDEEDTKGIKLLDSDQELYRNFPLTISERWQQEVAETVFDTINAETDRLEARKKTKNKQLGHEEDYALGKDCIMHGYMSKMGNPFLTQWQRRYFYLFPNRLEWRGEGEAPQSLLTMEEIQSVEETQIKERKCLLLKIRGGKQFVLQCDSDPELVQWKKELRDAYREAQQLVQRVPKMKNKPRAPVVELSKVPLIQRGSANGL
G protein-coupled receptor kinase 5 (Bos taurus, UniProt P43249), sequence (P43249 whole entry): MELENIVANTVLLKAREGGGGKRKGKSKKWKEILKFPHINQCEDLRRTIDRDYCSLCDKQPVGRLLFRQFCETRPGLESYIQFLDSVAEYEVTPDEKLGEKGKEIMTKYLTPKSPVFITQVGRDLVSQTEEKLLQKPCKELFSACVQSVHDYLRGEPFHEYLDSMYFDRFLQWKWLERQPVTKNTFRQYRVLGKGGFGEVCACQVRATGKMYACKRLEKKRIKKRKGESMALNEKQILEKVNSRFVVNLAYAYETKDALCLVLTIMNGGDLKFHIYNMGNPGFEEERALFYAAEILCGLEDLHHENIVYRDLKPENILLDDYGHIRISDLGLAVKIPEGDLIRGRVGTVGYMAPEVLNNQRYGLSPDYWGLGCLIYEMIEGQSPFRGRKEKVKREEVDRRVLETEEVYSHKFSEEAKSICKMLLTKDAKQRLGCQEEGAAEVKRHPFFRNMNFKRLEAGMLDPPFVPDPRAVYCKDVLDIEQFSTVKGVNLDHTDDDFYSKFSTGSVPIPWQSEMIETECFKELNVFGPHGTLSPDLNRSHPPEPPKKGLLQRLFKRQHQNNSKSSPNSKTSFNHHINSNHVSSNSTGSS
Beta-adrenergic receptor kinase 1 (Homo sapiens, UniProt P25098, S670A), sequence (P25098 whole entry S670A): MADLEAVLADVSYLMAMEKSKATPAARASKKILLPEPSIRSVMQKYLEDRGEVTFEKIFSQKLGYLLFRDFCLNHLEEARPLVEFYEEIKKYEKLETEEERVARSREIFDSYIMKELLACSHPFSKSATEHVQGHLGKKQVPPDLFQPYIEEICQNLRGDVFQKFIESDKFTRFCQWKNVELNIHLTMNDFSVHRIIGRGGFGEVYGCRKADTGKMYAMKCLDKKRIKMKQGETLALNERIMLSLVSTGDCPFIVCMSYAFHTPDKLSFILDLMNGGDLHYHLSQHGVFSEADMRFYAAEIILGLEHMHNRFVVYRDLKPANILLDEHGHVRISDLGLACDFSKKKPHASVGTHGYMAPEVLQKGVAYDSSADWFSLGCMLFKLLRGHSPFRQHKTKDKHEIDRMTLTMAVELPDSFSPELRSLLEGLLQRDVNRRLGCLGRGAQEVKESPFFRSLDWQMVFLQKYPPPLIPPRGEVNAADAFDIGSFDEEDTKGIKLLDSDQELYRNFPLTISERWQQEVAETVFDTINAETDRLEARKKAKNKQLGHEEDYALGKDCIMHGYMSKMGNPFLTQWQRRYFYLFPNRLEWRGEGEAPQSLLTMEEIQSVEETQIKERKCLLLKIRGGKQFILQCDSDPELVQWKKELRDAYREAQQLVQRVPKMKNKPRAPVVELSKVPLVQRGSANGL

One may read the IC50 as the point on the concentration scale where inhibition reaches its midpoint. The compound `Cn1c(CNc2cccc(C(=O)NCc3ccccc3C(F)(F)F)c2)nnc1-c1ccncc1` came in with an IC50 in assay [1] of more than 2 µM.

Turning to `CC1=C(C(=O)Nc2ccc3[nH]ncc3c2)C(c2ccc(F)cc2)NC(=O)N1` (configuration not stated) [GSK-180736A], the IC50 in [2] is more than 500 µM.

`CC[C@H](C)[C@H](NC(=O)[C@H](C)NC(=O)[C@@H](NC(=O)[C@@H](N)CCCCN)[C@@H](C)O)C(=O)N[C@@H](C)C(=O)N[C@@H](CCCCN)C(=O)N[C@@H](Cc1ccccc1)C(=O)N[C@@H](CCC(=O)O)C(=O)N[C@@H](CCCNC(=N)N)C(=O)N[C@@H](CC(C)C)C(=O)N[C@@H](CCC(N)=O)C(=O)N[C@H](C(=O)N[C@H](C(=O)N[C@H](C(=O)N[C@@H](CC(N)=O)C(=O)N[C@@H](Cc1ccc(O)cc1)C(=O)N[C@@H](Cc1ccccc1)C(=O)N[C@H](C(=O)N[C@H](C(=O)N[C@@H](CO)C(=O)N[C@@H](CCCCN)C(=O)O)[C@@H](C)O)[C@@H](C)CC)[C@@H](C)O)C(C)C)[C@@H](C)O` (H-KTAIAKFERLQTVTNYFITSK-OH): the values for the IC50 in assay [3], in assay [4] and in assay [5] were 36.5 µM, 30.4 µM and 61.3 µM, respectively.

Regarding `CC[C@H](C)[C@H](NC(=O)[C@H](C)NC(=O)[C@@H](NC(=O)[C@@H](N)CCCCN)[C@@H](C)O)C(=O)N[C@@H](C)C(=O)N[C@@H](CCCCN)C(=O)N[C@@H](Cc1ccccc1)C(=O)N[C@@H](CCC(=O)O)C(=O)N[C@@H](CCCNC(=N)N)C(=O)N[C@@H](CC(C)C)C(=O)N[C@@H](CCC(N)=O)C(=O)N[C@H](C(=O)N[C@H](C(=O)N[C@H](C(=O)N[C@@H](CC(N)=O)C(=O)N[C@@H](Cc1ccc(O)cc1)C(=O)N[C@@H](Cc1ccccc1)C(=O)N[C@H](C(=O)N[C@H](C(=O)N[C@@H](CO)C(=O)N[C@@H](CCC(=O)O)C(=O)O)[C@@H](C)O)[C@@H](C)CC)[C@@H](C)O)C(C)C)[C@@H](C)O` (H-KTAIAKFERLQTVTNYFITSE-OH), the half-maximal inhibitory concentration (IC50) worked out at 4.4 µM in assay [3], 6.1 µM in assay [4] and 3.9 µM in [5].

As to `CC[C@H](C)[C@H](NC(=O)[C@H](Cc1ccccc1)NC(=O)[C@H](Cc1ccc(O)cc1)NC(=O)[C@H](CC(N)=O)NC(=O)[C@@H](NC(=O)[C@@H](NC(=O)[C@@H](NC(=O)[C@H](CCC(N)=O)NC(=O)[C@H](CC(C)C)NC(=O)[C@H](CCCNC(=N)N)NC(=O)[C@H](CCC(=O)O)NC(=O)[C@H](Cc1ccccc1)NC(=O)[C@H](CCCCN)NC(=O)[C@H](C)N)[C@@H](C)O)C(C)C)[C@@H](C)O)C(=O)N[C@H](C(=O)N[C@@H](CO)C(=O)N[C@@H](CCC(=O)O)C(=O)O)[C@@H](C)O` (H-AKFERLQTVTNYFITSE-OH), the IC50 in [3] turned out to be 0.6 µM; in assay [4] it was 1.5 µM; in assay [5], 1.6 µM.

`CC[C@H](C)[C@H](NC(=O)[C@H](C)NC(=O)[C@@H](NC(=O)[C@@H](N)CCCCN)[C@@H](C)O)C(=O)N[C@@H](C)C(=O)N[C@@H](CCCCN)C(=O)N[C@@H](Cc1ccccc1)C(=O)N[C@@H](CCC(=O)O)C(=O)N[C@@H](CCCNC(=N)N)C(=O)N[C@@H](CC(C)C)C(=O)N[C@@H](CCC(N)=O)C(=O)N[C@H](C(=O)N[C@H](C(=O)N[C@H](C(=O)N[C@@H](CC(N)=O)C(=O)O)[C@@H](C)O)C(C)C)[C@@H](C)O` (H-KTAIAKFERLQTVTN-OH): the figures for the IC50 in [3], in assay [4] and in assay [5] were 5.6 µM, 11.6 µM and 2.1 µM, respectively.

Take `CC1=C(C(=O)Nc2cc(Cl)c3[nH]ncc3c2)C(c2ccc(C(F)(F)F)cc2)CC(=O)N1` (configuration not stated) [GSK-466317A]: the concentration for half-maximal inhibition (IC50) was 12.6 µM in [2] and 1000 µM at Rhodopsin kinase GRK1.

With `O=C1NCc2ccc(OC[C@@H]3CNCC[C@H]3c3ccc(F)cc3)cc21`, the IC50 in assay [6] came out at 6.3 µM.

`CC1=C(C(=O)Nc2ccc3[nH]ncc3c2)C(c2ccc(F)cc2)N=C(c2ccc(C(F)(F)F)cc2)N1` (configuration not stated): the IC50 in assay [2] is 200 µM; on Rhodopsin kinase GRK1 it was more than 1000 µM; in assay [7], 631 µM.

With `CC1=C(C(=O)Nc2ccc3[nH]ncc3c2)C(c2ccc(Cl)c(Cl)c2)CC(=O)N1` (configuration not stated) [GSK-299115A], half-maximal inhibition in [2] (IC50) required 63.1 µM.

`CC1=C(C(=O)Nc2ccc3[nH]ncc3c2)C(c2ccc3ccccc3c2)CC(=O)N1` (configuration not stated) [GSK-270822A] displayed an IC50 in assay [2] of 50.1 µM.

In the case of `CC[C@H](C)[C@H](NC(=O)[C@H](C)NC(=O)[C@@H](NC(=O)[C@@H](N)CCC(=O)O)[C@@H](C)O)C(=O)N[C@@H](C)C(=O)N[C@@H](CCCCN)C(=O)N[C@@H](Cc1ccccc1)C(=O)N[C@@H](CCC(=O)O)C(=O)N[C@@H](CCCNC(=N)N)C(=O)N[C@@H](CC(C)C)C(=O)N[C@@H](CCC(N)=O)C(=O)N[C@H](C(=O)N[C@H](C(=O)N[C@H](C(=O)N[C@@H](CC(N)=O)C(=O)N[C@@H](Cc1ccc(O)cc1)C(=O)N[C@@H](Cc1ccccc1)C(=O)N[C@H](C(=O)N[C@H](C(=O)N[C@@H](CO)C(=O)N[C@@H](CCCCN)C(=O)O)[C@@H](C)O)[C@@H](C)CC)[C@@H](C)O)C(C)C)[C@@H](C)O` (H-ETAIAKFERLQTVTNYFITSK-OH), the values for the IC50 in assay [3], in [4] and in assay [5] were 52.2 µM, 22.6 µM and 7.4 µM, respectively.

With `O=S(=O)(O)O[C@H]1[C@H](OS(=O)(=O)O)[C@@H](OS(=O)(=O)O)[C@H](OS(=O)(=O)O)[C@@H](OS(=O)(=O)O)[C@H]1OS(=O)(=O)O`, the IC50 in assay [8] was 13.5 µM.

As for `Fc1ccc([C@@H]2CCNC[C@H]2COc2ccc3c(c2)OCO3)cc1` [PAROXETINE HYDROCHLORIDE], the IC50 in assay [2] is more than 45 µM; in assay [9], 220 µM.

For the compound `CC[C@H](C)[C@H](NC(=O)[C@H](Cc1ccccc1)NC(=O)[C@H](Cc1ccc(O)cc1)NC(=O)[C@H](CC(N)=O)NC(=O)[C@@H](NC(=O)[C@@H](NC(=O)[C@@H](NC(=O)[C@H](CCC(N)=O)NC(=O)[C@H](CC(C)C)NC(=O)[C@H](CCCNC(=N)N)NC(=O)[C@H](CCC(=O)O)NC(=O)[C@H](Cc1ccccc1)NC(=O)[C@H](CCCCN)NC(=O)[C@H](C)N)[C@@H](C)O)C(C)C)[C@@H](C)O)C(=O)N[C@H](C(=O)N[C@@H](CO)C(=O)N[C@@H](CCCCN)C(=O)O)[C@@H](C)O` (H-AKFERLQTVTNYFITSK-OH), the IC50 in [3] stood at 32.2 µM; in assay [4], 55.5 µM; in assay [5] it was 9.4 µM.

On to `O=P(O)(O)O[C@@H]1[C@H](O)[C@H](O)[C@@H](O)[C@H](O)[C@H]1O`, for which the IC50 in [8] came to 3600 µM.
